Experimental data from ChEMBL document CHEMBL4715875, “Evaluation of the in Vivo Aphrodisiac Activity of a Cyclotide Extract from Hybanthus enneaspermus” (2020).
Positions of bridges follow the written chain, without caps; N, C: chain ends. Residues, ends and D or L forms follow the SMILES beside them.

Assays:
Assay type in all cases: functional
[1] = tested on: Rattus norvegicus; experiment: Induction of libido-enhancing activity in Wistar rat assessed as intromission ratio at 5 mg/kg, po pre-treated for 30 mins followed by female rat introduction and measured up to 3 hrs (reference value: 86 +/- 4.1%); conditions: time min <=210
[2] = tested on: Rattus norvegicus; experiment: Induction of libido-enhancing activity in Wistar rat assessed as number of ejaculations at 5 mg/kg, po pre-treated for 30 mins followed by female rat introduction and measured up to 3 hrs (reference value: 1.2 +/- 0.3); conditions: time hrs <=3.5
[3] = tested on: Rattus norvegicus; experiment: Induction of libido-enhancing activity in Wistar rat assessed as number of intromission at 5 mg/kg, po pre-treated for 30 mins followed by female rat introduction and measured up to 3 hrs (reference value: 49 +/- 8.5); conditions: time hrs <=3.5
[4] = tested on: Rattus norvegicus; experiment: Induction of libido-enhancing activity in Wistar rat assessed as intromission frequency at 5 mg/kg, po pre-treated for 30 mins followed by female rat introduction and measured up to 3 hrs (reference value: 35 +/- 5); conditions: time min <=210
[5] = tested on: Rattus norvegicus; experiment: Induction of libido-enhancing activity in Wistar rat assessed as first behavior latency time at 5 mg/kg, po pre-treated for 30 mins followed by female rat introduction and measured up to 3 hrs (reference value: 200 +/- 40 sec); conditions: time min <=210
[6] = tested on: Rattus norvegicus; experiment: Induction of libido-enhancing activity in Wistar rat assessed as number of intromission at 5 mg/kg, po pre-treated for 30 mins followed by female rat introduction and measured up to 1 hr (reference value: 63 +/- 7.7); conditions: time hrs <=1.5
[7] = tested on: Rattus norvegicus; experiment: Induction of libido-enhancing activity in Wistar rat assessed as number of intromission at 5 mg/kg, po pre-treated for 30 mins followed by female rat introduction and measured up to 2 hrs (reference value: 76 +/- 11); conditions: time hrs <=2.5
[8] = tested on: Rattus norvegicus; experiment: Induction of libido-enhancing activity in Wistar rat assessed as ejaculation latency latency time at 5 mg/kg, po pre-treated for 30 mins followed by female rat introduction and measured up to 3 hrs (reference value: 1300 +/- 320 sec); conditions: time min <=210
[9] = tested on: Rattus norvegicus; experiment: Induction of libido-enhancing activity in Wistar rat assessed as number of ejaculations at 5 mg/kg, po pre-treated for 30 mins followed by female rat introduction (reference value: 5.5 +/- 0.6); conditions: 0.5 h
[10] = tested on: Rattus norvegicus; experiment: Induction of libido-enhancing activity in Wistar rat assessed as number of mount at 5 mg/kg, po pre-treated for 30 mins followed by female rat introduction and measured up to 2 hrs (reference value: 9.1 +/- 3); conditions: time hrs <=2.5
[11] = tested on: Rattus norvegicus; experiment: Induction of libido-enhancing activity in Wistar rat assessed as ejaculation post interval time at 5 mg/kg, po pre-treated for 30 mins followed by female rat introduction and measured up to 3 hrs (reference value: 760 +/- 50 sec); conditions: time min <=210
[12] = tested on: Rattus norvegicus; experiment: Induction of libido-enhancing activity in Wistar rat assessed as number of mount at 5 mg/kg, po pre-treated for 30 mins followed by female rat introduction and measured up to 1 hr (reference value: 16 +/- 6.9); conditions: time hrs <=1.5
[13] = tested on: Rattus norvegicus; experiment: Induction of libido-enhancing activity in Wistar rat assessed as number of ejaculations at 5 mg/kg, po pre-treated for 30 mins followed by female rat introduction and measured up to 2 hrs (reference value: 2.2 +/- 0.3); conditions: time hrs <=2.5
[14] = tested on: Rattus norvegicus; experiment: Induction of libido-enhancing activity in Wistar rat assessed as mount frequency at 5 mg/kg, po pre-treated for 30 mins followed by female rat introduction and measured up to 3 hrs (reference value: 5.8 +/- 2.1); conditions: time min <=210
[15] = tested on: Rattus norvegicus; experiment: Induction of libido-enhancing activity in Wistar rat assessed as intromission latency time at 5 mg/kg, po pre-treated for 30 mins followed by female rat introduction and measured up to 3 hrs (reference value: 270 +/- 68 sec); conditions: time min <=210
[16] = tested on: Rattus norvegicus; experiment: Induction of libido-enhancing activity in Wistar rat assessed as number of ejaculations at 5 mg/kg, po pre-treated for 30 mins followed by female rat introduction and measured up to 1 hr (reference value: 2.2 +/- 0.4); conditions: time hrs <=1.5
[17] = tested on: Rattus norvegicus; experiment: Induction of libido-enhancing activity in Wistar rat assessed as total number of mount at 5 mg/kg, po pre-treated for 30 mins followed by female rat introduction (reference value: 3.9 +/- 1.2); conditions: 0.5 h
[18] = tested on: Rattus norvegicus; experiment: Induction of libido-enhancing activity in Wistar rat assessed as copulatory plugs at 5 mg/kg, po pre-treated for 30 mins followed by female rat introduction and measured up to 3 hrs (reference value: 4.2 +/- 0.6 sec); conditions: time min <=210
[19] = tested on: Rattus norvegicus; experiment: Induction of libido-enhancing activity in Wistar rat assessed as number of intromission at 5 mg/kg, po pre-treated for 30 mins followed by female rat introduction (reference value: 170 +/- 32); conditions: 0.5 h
[20] = tested on: Rattus norvegicus; experiment: Induction of libido-enhancing activity in Wistar rat assessed as number of mount at 5 mg/kg, po pre-treated for 30 mins followed by female rat introduction and measured up to 3 hrs (reference value: 3.9 +/- 1.2); conditions: time hrs <=3.5

| Compound | Activity [1] [%] | Activity [2] | Activity [3] | Activity [4] | Time [5] [s] | Activity [6] | Activity [7] | Time [8] [s] | Activity [9] | Activity [10] | Time [11] [s] | Activity [12] | Activity [13] | Activity [14] | Time [15] [s] | Activity [16] | Activity [17] | Activity [18] | Activity [19] | Activity [20] |
| --- | --- | --- | --- | --- | --- | --- | --- | --- | --- | --- | --- | --- | --- | --- | --- | --- | --- | --- | --- | --- |
| CC(=O)CC(O)(CC(C)=O)C(C)=O.CCCc1nn(C)c2c(=O)nc(-c3cc(S(=O)(=O)N4CCN(C)CC4)ccc3OCC)[nH]c12 | 85 | 2.2 | 38 | 23 | 96 | 65 | 63 | 940 | 7.7 | 6.7 | 860 | 8.3 | 2.8 | 4.7 | 96 | 2 | 26 | 6 | 180 | 2.3 |
| CC[C@H](C)[C@@H]1NC(=O)[C@H](C)NC(=O)[C@H](C)NC(=O)[C@H]([C@@H](C)O)NC(=O)[C@H](Cc2ccccc2)NC(=O)[C@@H]2CSSC[C@@H](C(=O)N[C@@H](Cc3ccc(O)cc3)C(=O)N[C@@H](CCCCN)C(=O)N[C@@H](CC(N)=O)C(=O)O)NC(=O)[C@H](C(C)C)NC(=O)[C@H](CCCCN)NC(=O)[C@H](CO)NC(=O)[C@H](CCCCN)NC(=O)[C@@H]3CSSC[C@H](NC(=O)[C@H](CO)NC(=O)[C@H](CCC(=O)O)NC(=O)CNC(=O)[C@@H](NC(=O)[C@@H]4CCCN4C(=O)[C@H](Cc4ccccc4)NC(=O)CN)CSSC[C@H](NC(=O)CNC1=O)C(=O)N[C@@H](CO)C(=O)N3)C(=O)N[C@@H](C(C)C)C(=O)N[C@@H](Cc1ccc(O)cc1)C(=O)N[C@@H]([C@@H](C)CC)C(=O)N1CCC[C@H]1C(=O)N2 (H-GFPCGESCVYIPCFTAAIGCSCKSKVCYKN-OH; disulfide 4-20, 8-22, 13-27) | 91 | 2 | 44 | 28 | 76 | 69 | 67 | 1000 | 6.5 | 5.8 | 690 | 3.2 | 3 | 3.1 | 78 | 1.5 | 19 | 5.5 | 180 | 9.7 |
